IC50 data for five molecules are collected here from patent US20080306055A1, “Heterocyclic Mchr1 Antagonists And Their Use In Therapy” (ASTRAZENECA AB, priority 2004, published 2008).

For one assay, the target named is HERG (Homo sapiens, UniProt Q12809). Kind of assay: HERG activity (planar-array-based voltage clamp). It counts as cell-based. Conditions: modified planar-array voltage clamp method. How it is done: HERG testing was performed using a modified version of the method described by Kiss L, Bennett P B, Uebele V N, Koblan K S, Kane S A, Neagle B, Schroeder K. “High throughput ion-channel pharmacology: planar-array-based voltage clamp” Assay Drug Dev Technol. 1, 127-35. (2003).
Chain of HERG (Q12809 whole entry): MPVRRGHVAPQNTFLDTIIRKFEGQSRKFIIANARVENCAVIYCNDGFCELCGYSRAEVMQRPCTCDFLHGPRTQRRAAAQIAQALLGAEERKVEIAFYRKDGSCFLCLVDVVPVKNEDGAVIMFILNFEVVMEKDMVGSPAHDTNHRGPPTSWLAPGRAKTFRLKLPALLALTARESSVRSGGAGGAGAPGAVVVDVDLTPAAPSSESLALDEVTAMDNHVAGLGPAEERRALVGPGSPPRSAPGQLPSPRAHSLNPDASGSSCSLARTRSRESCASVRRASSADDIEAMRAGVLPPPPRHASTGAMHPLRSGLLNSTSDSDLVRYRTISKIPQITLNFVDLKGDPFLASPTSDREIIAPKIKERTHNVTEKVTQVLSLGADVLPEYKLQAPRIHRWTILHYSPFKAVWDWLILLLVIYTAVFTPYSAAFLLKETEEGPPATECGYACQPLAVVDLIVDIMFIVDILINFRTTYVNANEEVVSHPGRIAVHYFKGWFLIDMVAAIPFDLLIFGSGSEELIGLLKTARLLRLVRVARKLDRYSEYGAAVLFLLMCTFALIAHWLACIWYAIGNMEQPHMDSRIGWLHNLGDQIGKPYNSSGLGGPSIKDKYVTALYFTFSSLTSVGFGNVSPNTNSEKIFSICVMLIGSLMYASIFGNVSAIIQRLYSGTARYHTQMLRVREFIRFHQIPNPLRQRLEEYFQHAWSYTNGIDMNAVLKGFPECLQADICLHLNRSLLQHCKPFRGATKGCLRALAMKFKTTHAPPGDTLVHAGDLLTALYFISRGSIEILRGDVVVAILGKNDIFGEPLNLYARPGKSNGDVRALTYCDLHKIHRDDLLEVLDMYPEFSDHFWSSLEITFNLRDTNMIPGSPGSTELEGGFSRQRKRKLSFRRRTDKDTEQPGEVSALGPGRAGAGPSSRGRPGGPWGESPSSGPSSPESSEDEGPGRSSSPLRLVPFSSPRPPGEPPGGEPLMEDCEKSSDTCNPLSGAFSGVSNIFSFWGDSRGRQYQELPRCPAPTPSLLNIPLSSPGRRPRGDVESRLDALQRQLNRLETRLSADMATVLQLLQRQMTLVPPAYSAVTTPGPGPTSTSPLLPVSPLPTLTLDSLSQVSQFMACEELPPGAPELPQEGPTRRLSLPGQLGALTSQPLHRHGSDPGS

For assay [1], the target named is T1, human Melanin concentrating hormone receptor 1 (hMCHr1) (Homo sapiens, UniProt Q99705).
T1 construct: purchased Euroscreen; host or cells: CHO-K1
T1 sequence (Q99705 whole entry): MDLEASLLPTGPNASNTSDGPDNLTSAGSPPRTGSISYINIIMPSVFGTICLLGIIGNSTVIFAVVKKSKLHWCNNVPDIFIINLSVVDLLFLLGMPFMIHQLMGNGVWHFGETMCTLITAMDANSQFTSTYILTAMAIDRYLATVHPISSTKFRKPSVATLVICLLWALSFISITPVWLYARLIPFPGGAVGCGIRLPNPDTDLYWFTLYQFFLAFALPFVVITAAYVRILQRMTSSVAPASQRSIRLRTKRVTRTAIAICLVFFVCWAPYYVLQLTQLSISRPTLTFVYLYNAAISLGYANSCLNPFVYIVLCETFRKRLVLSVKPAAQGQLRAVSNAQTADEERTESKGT
Briefly: MCH1 receptor radioligand binding (125I-MCH, CHO-K1 membranes). Conditions: 125I-MCH displacement, membranes from CHO-K1 cells expressing hMCHr1; read-out: IC50 in human MCHr1 binding assay. How it is done:
MCH1 Receptor Radioligand Binding.
Assays were performed on membranes prepared from CHO-K1 cells expressing the human Melanin concentrating hormone receptor 1 (hMCHr1, 5.45 pmol/mg protein; Euroscreen). Assays were performed in a 96-well plate format in a final reaction volume of 200 μl per well. Each well contained 6 μg of membrane proteins diluted in binding buffer (50 mM Tris, 3 mM MgCl2, 0.05% bovine serum albumin and the radioligand ^125I-MCH (IM344 Amersham) was added to give 10 000 cpm (counts per minute) per well. Each well contained 2 μl of the appropriate concentration of competitive antagonist prepared in DMSO and left to stand at 30° C. for 60 minutes. Non-specific binding was determined as that remaining following incubation with […] MCH (Melanin concentrating hormone, H-1482 Bachem). The reaction was terminated by transfer of the reaction to GF/A filters using a Micro96 Harvester (Skatron Instruments, Norway). Filters were washed with assay buffer. Radioligand retained on the filters was quantified using a 1450 Microbeta TRILUX (Wallac, Finland).
Non-specific binding was subtracted from all values determined. Maximum binding was that determined in the absence of any competitor following subtraction of the value determined for non-specific binding. Binding of compounds at various concentrations was plotted according to the equation
A is the bottom plateau of the curve i.e. the final minimum y value
B is the top of the plateau of the curve i.e. the final maximum y value
C is the x value at the middle of the curve. This represents the log EC50 value when A+B=100
D is, the slope factor. x is the original known x values. y is the original known y values.

The next assay concerns the target T2, recombinant hMCHr1 (Homo sapiens, UniProt Q99705).
T2 construct: purchased Euroscreen
Briefly: MCHr1 functional assay ([35S]GTPγS binding, membranes). It counts as biochemical. Conditions: ED80 concentration of MCH, antagonist mode. As for the experimental part: Membranes expressing recombinant hMCHr1 ([…] protein; Euroscreen) were prepared in assay buffer (50 mM HEPES, 100 mM NaCl, 5 mM MgCl2, 1 mM EDTA, 200 μM DTT, 20 μM GDP (Sigma) containing 0.1 μg/ml BSA, pH7.4) before assay. The assays were performed using membranes at 6 μg/well in an assay volume of 200 μL and the appropriate concentrations of compounds prepared in DMSO. The reaction was started by addition of 0.056 nM [^35S]GTPγS (Specific activity >1000 Ci/mmol; Amersham) and an ED80 concentration of MCH (determined for each membrane and each MCH batch). Non-specific binding was determined using 20 μM non-radiolabelled GTPγS. Plates were incubated for 45 min at 30° C. Free and bound GTPγS were separated by filtration binding using GF/B filter mats presoaked in wash buffer (50 mM Tris, 5 mM MgCl2, 50 mM NaCl, pH 7.4) using a Micro96 cell harvester (Skatron Instruments) and the filters then dried at 50° C. before counting using a 1450 Microbeta TRILUX (Wallac).
Data are means ±SD for experiments performed in triplicate. IC50 values of antagonists were determined using non-linear regression analysis of concentration response curves using Activity Base. For instance, the following IC50 values were obtained for the compounds of the following examples: […]
On the technique in general: GTPγS is a poorly hydrolysed GTP analogue; its binding reports G protein activation.

T2 sequence (Q99705 whole entry): as above

What is called IC50 is the concentration that gives 50% inhibition. As for `CC(O)CCNC(=O)NC1CCN(Cc2ccn(-c3ccc(C(F)(F)F)cc3)c2)CC1` (stereo not drawn) [Example 76, N-(3-hydroxybutyl)-N′-[1-({1-[4-(trifluoromethyl)phenyl]-1H-pyrrol-3-yl}methyl)piperidin-4-yl]urea], the IC50 against HERG was greater than 5000 nM.

On to `O=C(NCCc1ccccc1)C1CCN(Cc2ccn(-c3ccc(C(F)(F)F)cc3)c2)CC1` [Example 3, N-(2-phenylethyl)-1-({1-[4-(trifluoromethyl)phenyl]-1H-pyrrol-3-yl}methyl)piperidine-4-carboxamide], for which the half-inhibitory concentration (IC50) in assay [1] was determined as 14 nM.

Consider `O=C(NC1CCN(Cc2ccn(-c3ccc(C(F)(F)F)cc3)c2)CC1)C(c1ccccc1)c1ccccc1` [Example 1, 2,2-diphenyl-N-[1-({1-[4-(trifluoromethyl)phenyl]-1H-pyrrol-3-yl}methyl)piperidin-4-yl]acetamide], for which the 50% inhibitory concentration (IC50) on recombinant hMCHr1 was 42 nM.

With `O=C(Nc1ccc(Cl)cc1Cl)NC1CCN(Cc2ccn(-c3ccc(C(F)(F)F)cc3)c2)CC1` [Example 6, N-(2,4-dichlorophenyl)-N′-[1-({1-[4-(trifluoromethyl)phenyl]-1H-pyrrol-3-yl}methyl)piperidin-4-yl]urea], the half-maximal inhibitory concentration (IC50) in assay [1] stood at 72 nM.

In the case of `O=C(CC1CCN(Cc2ccn(-c3ccc(C(F)(F)F)cc3)c2)CC1)NCc1ccc(F)c(F)c1` [Example 2, N-(3,4-difluorobenzyl)-2-[1-({1-[4-(trifluoromethyl)phenyl]-1H-pyrrol-3-yl}methyl)piperidin-4-yl]acetamide], the IC50 was 12 nM in assay [1] and 112 nM at recombinant hMCHr1.
